The target of the assay is T1, NIK (Homo sapiens, UniProt Q99558).
T1 construct: Both assays utilize a truncated form of NIK containing only the catalytic domain; made in house; host or cells: baculovirus expression system (insect cells implied)
T1 sequence (Q99558 400-655 limits assumed): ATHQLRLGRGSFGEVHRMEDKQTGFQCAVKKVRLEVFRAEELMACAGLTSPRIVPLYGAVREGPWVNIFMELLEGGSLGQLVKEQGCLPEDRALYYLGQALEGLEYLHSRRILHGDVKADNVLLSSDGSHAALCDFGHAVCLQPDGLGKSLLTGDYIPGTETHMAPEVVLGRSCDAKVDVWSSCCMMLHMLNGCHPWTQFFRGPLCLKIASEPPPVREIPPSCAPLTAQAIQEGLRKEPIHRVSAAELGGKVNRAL
Briefly: homogenous time resolved fluorescence (HTRF) assay for NIK Ki measurement. The following applies: truncated NIK (catalytic domain only), autophosphorylation; 10 nM enzyme; 20, 100, 200 or 500 μM ATP; room temperature, 2 hours; read-out: Ki activity in the homogenous time resolved fluorescence (HTRF) assay for NIK. It counts as biochemical. A general note: TR-FRET usually uses a lanthanide donor and a delayed reading to cut background.
As to `Cc1cnc(C(C)(O)C#Cc2ccc3c(c2)N(c2nc(N)ncc2Cl)CC32CN(C)C2)s1` (stereo not shown) [Example 301, 4-(1′-(2-Amino-5-chloro-4-pyrimidinyl)-1-methyl-1′,2′-dihydrospiro[azetidine-3,3′-indol]-6′-yl)-2-(5-methyl-1,3-thiazol-2-yl)-3-butyn-2-ol], the Ki was under 1 µM.

For the compound `COCCOc1cnc(N)nc1-c1c[nH]c2ccc(C#CC3(O)CCCC3)cc12` [Example 223, 1-((3-(2-Amino-5-(2-methoxyethoxy)-4-pyrimidinyl)-1H-indol-5-yl)ethynyl)cyclopentanol], the Ki is under 1 µM.

In the case of `CN1CC2(C1)CN(c1nc(N)ncc1Cl)c1cc(C#CC(C)(O)c3nccs3)ccc12` (single isomer, unassigned) [Example 182a, (2S*)-4-(1′-(2-Amino-5-chloro-4-pyrimidinyl)-1-methyl-1′,2′-dihydrospiro[azetidine-3,3′-indol]-6′-yl)-2-(1,3-thiazol-2-yl)-3-Butyn-2-ol], the inhibition constant Ki lay in the range of 1 to 30 µM.

As to `CC(=O)Nc1cc(C#CC2(O)CCCC2)cc2c1ccn2-c1ccnc(N)n1` [Example 101, N-(1-(2-aminopyrimidin-4-yl)-6-(2-(1-hydroxycyclopentyl)ethynyl)-1H-indol-4-yl)acetamide], the Ki was under 1 µM.

Take `CN1CC[C@]2(C1)CN(c1nc(N)ncc1Cl)c1cc(C#C[C@@](C)(O)c3nccs3)ccc12` (relative stereo) [Example 197, (2R)-4-((3S*)-1-(2-Amino-5-chloro-4-pyrimidinyl)-1′-methyl-1,2-dihydrospiro[indole-3,3′-pyrrolidin]-6-yl)-2-(1,3-thiazol-2-yl)-3-butyn-2-ol]: the inhibitory constant (Ki) is under 1 µM.

Take `CC(O)(C#Cc1cccc(Oc2nc(N)ncc2Cl)c1)c1nccs1` (stereo not shown) [Example 315, 4-(3-((2-amino-5-chloro-4-pyrimidinyl)oxy)phenyl)-2-(1,3-thiazol-2-yl)-3-butyn-2-ol]: the Ki is under 1 µM.

Take `Cc1nc(C(C)(O)C#Cc2ccc3c(c2)N(c2ccnc(N)n2)CC3)sc1C` (stereo not shown) [Example 285, 4-(1-(2-Amino-4-pyrimidinyl)-2,3-dihydro-1H-indol-6-yl)-2-(4,5-dimethyl-1,3-thiazol-2-yl)-3-Butyn-2-ol]: the Ki fell in the range of 1 to 30 µM.

Consider `COCCN1CC2(C1)CN(c1nc(N)ncc1Cl)c1cc(C#C[C@@](C)(O)c3nccs3)ccc12` [Example 183, (2R)-4-(1′-(2-amino-5-chloropyrimidin-4-yl)-1-(2-methoxyethyl)spiro[azetidine-3,3′-indoline]-6′-yl)-2-(thiazol-2-yl)but-3-yn-2-ol], for which the Ki was under 1 µM.

In the case of `Cc1cc([C@](C)(O)C#Cc2ccc3c(c2)N(c2nc(N)ncc2Cl)CC32CCOCC2)on1` (single isomer, unassigned) [Example 31], the Ki was under 1 µM.

Consider `C[C@]1(CCO)CN(c2nc(N)ncc2Cl)c2cc(C#CC3(O)CCCC3)ccc21` (single isomer, unassigned) [Example 52, 1-(03R*)-1-(2-amino-5-chloro-4-pyrimidinyl)-3-(2-hydroxyethyl)-3-methyl-2,3-dihydro-1H-indol-6-yl)ethynyl)cyclopentanol], for which the Ki is under 1 µM.

For `C[C@@](O)(C#Cc1ccc2c(c1)N(c1nc(N)ncc1Cl)C[C@]21CCOC1)c1nccs1` (stereo in doubt) [Example 202, (2R)-4-((3S*)-1′-(2-Amino-5-chloro-4-pyrimidinyl)-1′,2′,4,5-tetrahydrospiro[furan-3,3′-indol]-6′-yl)-2-(1,3-thiazol-2-yl)-3-butyn-2-ol], the inhibitory constant (Ki) was under 1 µM.

For the compound `Cc1cc(C(C)(O)C#Cc2ccc(O[C@H]3CCOC3)c(Nc3nc(N)ncc3Cl)c2)no1` (stereo partly shown) [Example 156], the inhibition constant (Ki) was under 1 µM.

With `Cc1cc(C(C)(O)C#Cc2ccc3[nH]c(C)c(-c4ccncc4)c3c2)no1` (stereo not shown) [Example 104, 4-(2-methyl-3-(pyridin-4-yl)-1H-indol-5-yl)-2-(5-methylisoxazol-3-yl)but-3-yn-2-ol], the inhibition constant (Ki) was under 1 µM.

Usually Ki stands for a measure of affinity in units of concentration, obtained from inhibition or displacement.

For the origin of these results see US20110086834A1, “ALKYNYL ALCOHOLS AS KINASE INHIBITORS” (AMGEN INC., priority 2008, published 2011).
